Test results reported in PMC11025159 (Journal of Translational Medicine, 2024).

Assays:
Panc-2 = assay: MTT cell viability assay Panc-2; format: cell-based; details: 48 h
Experimental: (§1) Cell viability was evaluated using an MTT colorimetric assay. Cells were seeded (10^5 cells/mL) in 96-well plates and allowed to grow overnight at 37 ℃ with 5% CO2 in a cell-culture incubator. On the following day, the cells were treated with small molecules at different concentrations (0.2–10 micro-molar) or vehicle (DMSO). Cells were then further incubated for 48 h.

A549 = assay: MTT cell viability assay A549; format: cell-based, human; details: 48 h
Experimental: as §1

HEK-293 = assay: MTT cell viability assay HEK-293; format: cell-based, human; details: read-out: IC50 HEK-293; MTT, 48 h; normal cell line
Experimental: as §1

Mia PaCa-2 = assay: MTT cell viability assay Mia PaCa-2; format: cell-based, human; details: 48 h
Experimental: as §1

HCT-116 = assay: MTT cell viability assay HCT-116; format: cell-based, human; details: 48 h
Experimental: as §1

MCF-7 = assay: MTT cell viability assay MCF-7; format: cell-based, human; details: 48 h
Experimental: as §1

JAK3 = target: T1, JAK3 (Homo sapiens, UniProt P52333); assay: Cell-free kinase assay JAK3; format: biochemical; details: structure-activity statement
T1 construct: purchased Promega Corporation V3701
T1 sequence (P52333 1-1124): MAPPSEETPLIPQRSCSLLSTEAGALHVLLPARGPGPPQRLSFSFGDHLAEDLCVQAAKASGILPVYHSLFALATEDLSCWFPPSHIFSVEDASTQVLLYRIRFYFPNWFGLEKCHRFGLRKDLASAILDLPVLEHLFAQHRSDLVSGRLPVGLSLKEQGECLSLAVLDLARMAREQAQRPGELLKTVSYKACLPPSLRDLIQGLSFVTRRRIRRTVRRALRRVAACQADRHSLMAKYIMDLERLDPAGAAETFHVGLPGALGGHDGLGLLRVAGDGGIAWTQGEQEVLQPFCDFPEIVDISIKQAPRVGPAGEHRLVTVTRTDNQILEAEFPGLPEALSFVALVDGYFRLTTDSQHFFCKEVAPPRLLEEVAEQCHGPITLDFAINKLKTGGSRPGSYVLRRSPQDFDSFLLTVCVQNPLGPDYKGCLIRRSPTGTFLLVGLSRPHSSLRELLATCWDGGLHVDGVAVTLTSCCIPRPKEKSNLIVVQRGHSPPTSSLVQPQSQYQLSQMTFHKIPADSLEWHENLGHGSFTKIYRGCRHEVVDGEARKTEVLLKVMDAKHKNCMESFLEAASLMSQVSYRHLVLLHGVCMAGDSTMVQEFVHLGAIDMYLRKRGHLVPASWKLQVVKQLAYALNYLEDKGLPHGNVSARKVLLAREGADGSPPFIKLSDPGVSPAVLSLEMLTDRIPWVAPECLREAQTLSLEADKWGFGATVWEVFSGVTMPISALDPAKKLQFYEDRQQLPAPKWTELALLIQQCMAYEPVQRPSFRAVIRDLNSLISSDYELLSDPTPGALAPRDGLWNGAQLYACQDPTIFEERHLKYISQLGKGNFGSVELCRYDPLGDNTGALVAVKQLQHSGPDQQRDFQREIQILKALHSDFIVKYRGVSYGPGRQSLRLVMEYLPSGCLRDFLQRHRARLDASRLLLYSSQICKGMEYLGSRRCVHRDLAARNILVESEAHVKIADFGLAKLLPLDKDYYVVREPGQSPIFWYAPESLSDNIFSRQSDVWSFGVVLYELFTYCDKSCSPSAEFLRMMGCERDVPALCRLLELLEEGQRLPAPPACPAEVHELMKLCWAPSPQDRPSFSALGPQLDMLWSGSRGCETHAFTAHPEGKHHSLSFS
Experimental: The cell-free kinase assays of small molecules were determined by following the manufacturer-recommended protocols. Different concentrations in triplicate were used to determine the IC50 value of the hit molecules (active molecules). For data analysis, GraphPad Prism V9.5 Software and a sigmoidal dose–response (variable slope) equation were used. Each value represents an average of three replicates per concentration.

Row | SMILES | IC50 (Panc-2) [µM] | IC50 (A549) [µM] | IC50 (HEK-293) [µM] | IC50 (Mia PaCa-2) [µM] | IC50 (HCT-116) [µM] | IC50 (MCF-7) [µM] | inhibitory activity against JAK3 in kinase assays and in MTT assays (JAK3)
1 | c1coc(-c2cnc3[nH]cc(-c4ccnc(NC5CC5)n4)c3c2)c1 [MJ01] | 3.16 | 0.47 | > 100 | 8.3 | 1.89 | 1.65 | significant inhibitory activity
2 | CSc1ccc(-c2cnc3[nH]cc(-c4ccnc(NC5CC5)n4)c3c2)cc1 [MJ02] | 4.67 | 3.13 | > 100 | 7.1 | 3.12 | 1.83 | significant inhibitory activity
3 | CSc1ccccc1-c1cnc2[nH]cc(-c3ccnc(NC4CC4)n3)c2c1 [MJ03] | 11 | 2.88 | > 100 | 18.1 | 8.2 | 10.2 | significant inhibitory activity
4 | Clc1ccc(-c2cnc3[nH]cc(-c4ccnc(NC5CC5)n4)c3c2)cc1 [MJ05] | 7.76 | 3.71 | > 100 | 6.59 | 8.72 | 4.47 | significant inhibitory activity
5 | Fc1cccc(-c2cnc3[nH]cc(-c4ccnc(NC5CC5)n4)c3c2)c1 [MJ06] | 7.33 | 4.31 | > 100 | 3.66 | 1.52 | 3.31 | significant inhibitory activity
6 | Nc1nccc(-c2c[nH]c3ncc(-c4cccc(F)c4)cc23)n1 [MJ07] | 3.12 | 5.55 | > 100 | 3.22 | 6.34 | 1.38 | less active
7 | Nc1nccc(-c2c[nH]c3ncc(-c4cccc(C(F)(F)F)c4)cc23)n1 [MJ08] | 19.3 | 5.1 | > 100 | 5.38 | 1.18 | 6.88 | less active
8 | c1cncc(-c2cnc3[nH]cc(-c4ccnc(NCCN5CCOCC5)n4)c3c2)c1 [MJ09] | 26.3 | 5.74 | > 100 | 2.16 | 3.22 | 11.5 | significant inhibitory activity
9 | Fc1ccc(-c2cnc3[nH]cc(-c4ccnc(NCCN5CCOCC5)n4)c3c2)cc1 [MJ10] | 33.6 | 6.99 | > 100 | 6.71 | 5.36 | 8.61 | significant inhibitory activity
